From US20090143468A1, “PET FOOD COMPOSITIONS AND METHODS” (priority 2004, published 2009)

Experiments:
[1] = tested on: osteoblast cell line MC3T3-E1; assay: Fatty acid compositional analysis of osteoblasts; assay type: cell-based
Protocol: (§1) Experiments are conducted to determine how SDA treatment of osteoblast-like cells in culture influence the polyunsaturated fatty acid (PUFA) composition. The osteoblast cell line MC3T3-E1 is cultured in growth medium (GM) consisting of DMEM supplemented with 10% fetal bovine serum (FBS), ascorbic acid, β-glycerol-phosphate, and 1% antimicrobial solution. The cells are plated in 24-well plates at a density of 1.2×10^4 cells per ml for 3 days until confluent. Once confluent, corresponding to the initialization of the osteoblastic phenotype, the medium is either changed for SDA or […] (LNA) treatment or cultured further in GM until subjected to the various treatments. At the end of the 3 day fatty acid treatment period, cultures are exposed to agents that induce COX-2 expression. The two agents utilized are forskolin (FSK) and interleukin-1 (IL-1). These agents are selected on the basis of their respective actions on the COX-2 gene. Forskolin, an activator of adenylate cyclase, increases cyclic-AMP (cAMP) concentrations. Interleukin-1, itself a bone resorption agent binding to its receptor on the cellular membrane, launches a cascade resulting in the activation of the transcription factor nuclear-factor κ-B (NFκB). Cyclic-AMP and NFκB both activate the expression of the COX-2 gene. Cyclic-AMP activates the expression of the COX-2 gene via the cAMP-response element binding protein (CREBP), which binds to the cAMP response element (CRE) in the COX-2 promoter. The COX-2 promoter also contains an NFκB binding element.
Fatty Acid Compositional Analysis of Osteoblasts. Osteoblast cells exposed to the PUFA treatments (SDA and LNA) are subjected to a gas chromotographic analysis of the FAME from extracted lipids of washed cells.

other cell cultures = assay: Omega-3 fatty acid concentrations in other cell cultures; assay type: cell-based; conditions: compared with linolenic acid (18:3n-3)
[2] = tested on: PGE2 production in osteoblasts; assay: PGE2 formation in osteoblasts (enzyme immunoassay); assay type: cell-based
Protocol: as §1, with “Interleukin-1, itself a bone resorption agent binding to its receptor on the cellular membrane, launches a cascade resulting in the activation of the transcription factor nuclear-factor κ-B (NFκB). Cyclic-AMP and NFκB both activate the expression of the COX-2 gene. Cyclic-AMP activates the expression of the COX-2 gene via the cAMP-response element binding protein (CREBP), which binds to the cAMP response element (CRE) in the COX-2 promoter. The COX-2 promoter also contains an NFκB binding element.” left out
Western Blot. […] Optical density is determined using Optimus image analyzing software (version 6.1). […]
PGE2 Formation. In the experiments, already detailed in the section on Western blotting, PGE2 levels in the medium of induced and non-induced cells are determined using an enzyme immunoassay kit (Cayman Chemical, Ann Arbor, Mich.).

[3] = tested on: Alkaline phosphatase (ALP) activity in osteoblast cells MC3T3-E1; assay: Alkaline phosphatase (ALP) activity, method of Lowry; assay type: cell-based; conditions: all time points evaluated; relative to linolenic acid
Protocol: as §1, with “Cyclic-AMP activates the expression of the COX-2 gene via the cAMP-response element binding protein (CREBP), which binds to the cAMP response element (CRE) in the COX-2 promoter. The COX-2 promoter also contains an NFκB binding element.” left out
Enzyme activity: Alkaline phosphatase (ALP) activity is determined by the method of Lowry.

[4] = Beagle feeding study, diets supplemented with SDA or linolenic acid; assay type: in vivo, beagles; conditions: dogs, low essential fatty acid diet 90 days
Description: Experiments are also designed to evaluate the effect of SDA on the pet, such as a dog or cat. As an example, beagles are provided with a low essential fatty acid diet for a period of 90 days. Diets supplemented with SDA or linolenic acid are provided for the subsequent 30 days.

[5] = then supplemented diet 30 days, compared to linolenic acid diet

Q: Which “concentrations of total omega-3 fatty acid in osteoblasts” value ([1]; SDA at increasing treatment levels) does the source give for `CC/C=C\C/C=C\C/C=C\C/C=C\CCCCC(=O)O` [SDA, 6Z, 9Z, 12Z, 15Z-octadecatetraenoic acid] here?
A: increased concentrations

Q: And the “22:5n-3 in osteoblasts” value ([1]; SDA treatment of osteoblasts)?
A: particularly elevates

Q: What about the EPA in osteoblasts ([1]; SDA treatment of osteoblasts) of the same molecule?
A: particularly elevates

Q: And the “altering the concentrations of omega-3 fatty acid” value (other cell cultures)?
A: more effective

Q: And the “PGE2 production in osteoblasts” value [2]?
A: attenuate PGE2 production

Q: What about the “activity of alkaline phosphatase” value [3] of the same molecule?
A: highest activity

Q: What about the “arachidonic acid in plasma and liver” value ([4]; then SDA supplemented diet 30 days) of the same molecule?
A: trend of decreased arachidonic acid

Q: And the “concentrations of 22:5n-3 in red blood cell membranes, plasma, and liver tissue” value [4, 5]?
A: elevated concentrations

Q: And the “concentrations of EPA in red blood cell membranes, plasma, and liver tissue” value [4, 5]?
A: elevated concentrations
